Tested on: Unknown protein yeast genes
Experiment: DNA chip mRNA expression in yeast, unknown protein yeast genes (Table 1)
Assay type: cell-based, Saccharomyces cerevisiae S288C
In short: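 Chemical exposure: 2 h, log-phase S. cerevisiae S288C, YPD, 25° C., dose set to inhibit growth without death. Profiling: mRNA labeled by reverse transcription with Cy3- or Cy5-dUTP, hybridized to whole-genome array. Output: fluorescence ratio against untreated culture.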

In the case of `S=C([S-])NCCNC(=S)[S-].[Zn+2]` [(11), zinc N,N′-ethylenebis(dithiocarbamate)], the “The level of expressed mRNA in the presence of chemical substance/The level of expressed mRNA in the absence of chemical substance” value (yeast gene YKL153W, incubated two hours with chemical substance) is reported as 2.1, the “The level of expressed mRNA in the presence of chemical substance/The level of expressed mRNA in the absence of chemical substance” value (yeast gene YKL195W, incubated two hours with chemical substance) is reported as 1.0 and the “The level of expressed mRNA in the presence of chemical substance/The level of expressed mRNA in the absence of chemical substance” value (yeast gene YKR033C) is reported as 0.3. For the same compound, the “The level of expressed mRNA in the presence of chemical substance/The level of expressed mRNA in the absence of chemical substance” value (yeast gene YKR091W, incubated two hours with chemical substance) was 1.1, the “The level of expressed mRNA in the presence of chemical substance/The level of expressed mRNA in the absence of chemical substance” value (yeast gene YLR054C, incubated two hours with chemical substance) was 0.7 and the “The level of expressed mRNA in the presence of chemical substance/The level of expressed mRNA in the absence of chemical substance” value (yeast gene YLR149C, incubated two hours with chemical substance) was 2.8. The “The level of expressed mRNA in the presence of chemical substance/The level of expressed mRNA in the absence of chemical substance” value (yeast gene YLR152C, incubated two hours with chemical substance) was 3.6, the “The level of expressed mRNA in the presence of chemical substance/The level of expressed mRNA in the absence of chemical substance” value (yeast gene YLR194C, incubated two hours with chemical substance) was 1.4 and the “The level of expressed mRNA in the presence of chemical substance/The level of expressed mRNA in the absence of chemical substance” value (yeast gene YLR324W, incubated two hours with chemical substance) was 0.9. For the same compound, the “The level of expressed mRNA in the presence of chemical substance/The level of expressed mRNA in the absence of chemical substance” value (yeast gene YLR350W, incubated two hours with chemical substance) was 0.9, the “The level of expressed mRNA in the presence of chemical substance/The level of expressed mRNA in the absence of chemical substance” value (yeast gene YLR387C, incubated two hours with chemical substance) was 0.9 and the “The level of expressed mRNA in the presence of chemical substance/The level of expressed mRNA in the absence of chemical substance” value (yeast gene YLR460C) was 14.3. For the same compound, the “The level of expressed mRNA in the presence of chemical substance/The level of expressed mRNA in the absence of chemical substance” value (yeast gene YML117W, incubated two hours with chemical substance) was 0.8, the “The level of expressed mRNA in the presence of chemical substance/The level of expressed mRNA in the absence of chemical substance” value (yeast gene YMR009W, incubated two hours with chemical substance) was 2.1 and the “The level of expressed mRNA in the presence of chemical substance/The level of expressed mRNA in the absence of chemical substance” value (yeast gene YMR067C, incubated two hours with chemical substance) was 1.1. For the same compound, the “The level of expressed mRNA in the presence of chemical substance/The level of expressed mRNA in the absence of chemical substance” value (yeast gene YMR090W) was 8.8, the “The level of expressed mRNA in the presence of chemical substance/The level of expressed mRNA in the absence of chemical substance” value (yeast gene YMR095C, incubated two hours with chemical substance) was 2.1 and the “The level of expressed mRNA in the presence of chemical substance/The level of expressed mRNA in the absence of chemical substance” value (yeast gene YMR097C, incubated two hours with chemical substance) was 1.5. The “The level of expressed mRNA in the presence of chemical substance/The level of expressed mRNA in the absence of chemical substance” value (yeast gene YMR102C, incubated two hours with chemical substance) was 1.5, the “The level of expressed mRNA in the presence of chemical substance/The level of expressed mRNA in the absence of chemical substance” value (yeast gene YMR107W, incubated two hours with chemical substance) was 3.0 and the “The level of expressed mRNA in the presence of chemical substance/The level of expressed mRNA in the absence of chemical substance” value (yeast gene YMR180C, incubated two hours with chemical substance) was 0.7. The “The level of expressed mRNA in the presence of chemical substance/The level of expressed mRNA in the absence of chemical substance” value (yeast gene YMR184W, incubated two hours with chemical substance) was 1.5, the “The level of expressed mRNA in the presence of chemical substance/The level of expressed mRNA in the absence of chemical substance” value (yeast gene YMR191W, incubated two hours with chemical substance) was 2.3 and the “The level of expressed mRNA in the presence of chemical substance/The level of expressed mRNA in the absence of chemical substance” value (yeast gene YMR295C, incubated two hours with chemical substance) was 1.2. The “The level of expressed mRNA in the presence of chemical substance/The level of expressed mRNA in the absence of chemical substance” value (yeast gene YMR316W, incubated two hours with chemical substance) was 1.5, the “The level of expressed mRNA in the presence of chemical substance/The level of expressed mRNA in the absence of chemical substance” value (yeast gene YNL044W, incubated two hours with chemical substance) was 1.1 and the “The level of expressed mRNA in the presence of chemical substance/The level of expressed mRNA in the absence of chemical substance” value (yeast gene YNL074C, incubated two hours with chemical substance) was 1.3. For the same compound, the “The level of expressed mRNA in the presence of chemical substance/The level of expressed mRNA in the absence of chemical substance” value (yeast gene YNL092W, incubated two hours with chemical substance) was 0.7, the “The level of expressed mRNA in the presence of chemical substance/The level of expressed mRNA in the absence of chemical substance” value (yeast gene YNL115C, incubated two hours with chemical substance) was 1.1 and the “The level of expressed mRNA in the presence of chemical substance/The level of expressed mRNA in the absence of chemical substance” value (yeast gene YNL156C, incubated two hours with chemical substance) was 1.4. For the same compound, the “The level of expressed mRNA in the presence of chemical substance/The level of expressed mRNA in the absence of chemical substance” value (yeast gene YNL234W, incubated two hours with chemical substance) was 1.3, the “The level of expressed mRNA in the presence of chemical substance/The level of expressed mRNA in the absence of chemical substance” value (yeast gene YNL281W, incubated two hours with chemical substance) was 1.6 and the “The level of expressed mRNA in the presence of chemical substance/The level of expressed mRNA in the absence of chemical substance” value (yeast gene YNL305C, incubated two hours with chemical substance) was 1.8. The “The level of expressed mRNA in the presence of chemical substance/The level of expressed mRNA in the absence of chemical substance” value (yeast gene YNR068C, incubated two hours with chemical substance) was 1.1, the “The level of expressed mRNA in the presence of chemical substance/The level of expressed mRNA in the absence of chemical substance” value (yeast gene YOL032W, incubated two hours with chemical substance) was 1.4 and the “The level of expressed mRNA in the presence of chemical substance/The level of expressed mRNA in the absence of chemical substance” value (yeast gene YOL036W, incubated two hours with chemical substance) was 2.2. The “The level of expressed mRNA in the presence of chemical substance/The level of expressed mRNA in the absence of chemical substance” value (yeast gene YOL047C, incubated two hours with chemical substance) was 0.9, the “The level of expressed mRNA in the presence of chemical substance/The level of expressed mRNA in the absence of chemical substance” value (yeast gene YOL071W, incubated two hours with chemical substance) was 4.3 and the “The level of expressed mRNA in the presence of chemical substance/The level of expressed mRNA in the absence of chemical substance” value (yeast gene YOL082W, incubated two hours with chemical substance) was 1.6. The “The level of expressed mRNA in the presence of chemical substance/The level of expressed mRNA in the absence of chemical substance” value (yeast gene YOL083W, incubated two hours with chemical substance) was 1.3, the “The level of expressed mRNA in the presence of chemical substance/The level of expressed mRNA in the absence of chemical substance” value (yeast gene YOL117W, incubated two hours with chemical substance) was 1.0 and the “The level of expressed mRNA in the presence of chemical substance/The level of expressed mRNA in the absence of chemical substance” value (yeast gene YOL131W, incubated two hours with chemical substance) was 1.4. The “The level of expressed mRNA in the presence of chemical substance/The level of expressed mRNA in the absence of chemical substance” value (yeast gene YOL150C) was 9.4, the “The level of expressed mRNA in the presence of chemical substance/The level of expressed mRNA in the absence of chemical substance” value (yeast gene YOL162W, incubated two hours with chemical substance) was 4.3 and the “The level of expressed mRNA in the presence of chemical substance/The level of expressed mRNA in the absence of chemical substance” value (yeast gene YOR019W, incubated two hours with chemical substance) was 1.7. For the same compound, the “The level of expressed mRNA in the presence of chemical substance/The level of expressed mRNA in the absence of chemical substance” value (yeast gene YOR197W, incubated two hours with chemical substance) was 1.0, the “The level of expressed mRNA in the presence of chemical substance/The level of expressed mRNA in the absence of chemical substance” value (yeast gene YPL087W, incubated two hours with chemical substance) was 2.5 and the “The level of expressed mRNA in the presence of chemical substance/The level of expressed mRNA in the absence of chemical substance” value (yeast gene YPL196W, incubated two hours with chemical substance) was 1.7. For the same compound, the “The level of expressed mRNA in the presence of chemical substance/The level of expressed mRNA in the absence of chemical substance” value (yeast gene YPL206C, incubated two hours with chemical substance) was 1.5, the “The level of expressed mRNA in the presence of chemical substance/The level of expressed mRNA in the absence of chemical substance” value (yeast gene YPL222W, incubated two hours with chemical substance) was 1.2 and the “The level of expressed mRNA in the presence of chemical substance/The level of expressed mRNA in the absence of chemical substance” value (yeast gene YPR023C, incubated two hours with chemical substance) was 1.7. The “The level of expressed mRNA in the presence of chemical substance/The level of expressed mRNA in the absence of chemical substance” value (yeast gene YPR151C, incubated two hours with chemical substance) was 1.4.

Source: US8192962B2, “Processes for detecting toxic substances” (Daikin Industries, Ltd., priority 2001, dated 2012)
